Measured values taken from a melting point compilation (Tetko et al.; mined from patent text by program, amines drawn as free bases though some values may be those of a salt).
Residues, ends and D or L forms follow the SMILES beside them. *: point of attachment. NHPhenethyl = c1ccc(CCN*)cc1; Cbz = O=C(OCc1ccccc1)*

melting point [°C]	SMILES
55 to 57	CCOCCc1ccc(OCCNc2ncnc3scc(C)c23)c(C)c1
78 to 79	CCOC(=S)Nc1cccc(Cl)c1
198 to 200	CS(=O)(=O)Nc1ccc(C(=O)CCC(=O)O)cc1
117 to 120	CCNC(=O)c1ccc2ncc(C3CCN(C)CC3)c-2[nH]1
128 to 130	CN(C/C=C\COCC(=O)O)c1cnc(-c2ccccc2)c(-c2ccccc2)n1
74	Cn1ccc2ccc(O)cc21
164 to 165	CN(CCOc1ccc(CC(Oc2ccc(Cl)cc2)C(=O)O)cc1)c1nc2ccccc2o1 (centres undefined)
110 to 111	COc1cc(C=CC(=O)c2ccccc2O)cc(OC)c1
198	CCc1nnc(-c2ccc(NC)cc2)n1-c1ccc(OC)cc1
80 to 81	CCCCCCc1cc(C(=O)O)c(N)s1
170 to 171	CCCc1nc2c(N)nc3cc(OCc4ccoc4)ccc3c2s1
209 to 215	CC1CC(=O)NN=C1c1ccc2c(c1)NCC(c1ccccc1)N2 (centres undefined)
154 to 155	CN1CCCCC1=NC(=O)Nc1ccc(C(F)(F)F)cc1
75 to 77	CC(=O)N(c1ncc(C(F)(F)F)cc1Cl)c1c([N+](=O)[O-])cc(C(F)(F)F)c(Cl)c1[N+](=O)[O-]
118 to 119	O=C(NCCO)c1cccc(-c2cccc3cc(OCc4cccc(C(F)(F)F)c4)nn23)c1
89 to 90	CCC1(C)Cc2c(C)c(Cl)c(C=O)c(C)c2C1 (centres undefined)
209 to 210	COc1cc(NC(=O)Nc2ccc(N3CCN(C(=O)Nc4ccc(OCCO)cc4C(F)(F)F)CC3)cc2)cc(OC)c1
100 to 101	CCN(CC)CCCNC(=O)Cn1ncc(-c2ccc([N+](=O)[O-])cc2)c1-c1ccccc1
293	Cc1ccc(S(N)(=O)=O)cc1NC(=O)c1cnn2c(C(F)F)cc(-c3ccc(C(F)(F)F)cc3)nc12
63 to 65	COC(=O)C(=O)c1ccc(OCCSc2ccc3ccccc3c2)cc1
226 to 228	N#Cc1c(N2CCCCC2)cc(-c2cccs2)c2c1C(=O)c1ccccc1-2
121 to 123	Cc1cc(C)c(NC(=O)N=C2CCCN2C)c(C)c1
54	CCCCCCC[C@H]1CC[C@H](CCc2ccc(-c3ccc(Br)cc3F)cc2)CC1
65 to 70	CN1CCN(CC2=NC(NC(=O)OCc3ccccc3)C(=O)N(C(C)(C(N)=O)c3ccccc3)c3ccccc32)CC1 (centres undefined)

melting point [°C]	SMILES
200 to 203	CC(C)C(NC(=O)Cn1c(-c2ccc(F)cc2)ncc(N)c1=O)C(=O)C(F)(F)F (centres undefined)
54	COCOc1c(-c2ccccc2)sc2ncccc12
92 to 96	C[N+]1([O-])CCC(=C(c2ccsc2)c2ccsc2)CC1 (centres undefined)
55 to 57	CCC(=O)C1=CCC(c2c(C)c(C)c3c(c2Cl)CC(C)(CC)C3)CC1=O (centres undefined)
128 to 130	CCOC(C)OC(C)(C)CCCC(C)C1CCC2C3CC=C4CC(O)CC(O)C4(C)C3CCC12C (centres undefined)
89 to 90	CCCn1nnn(-c2cc(OC3CCCO3)c(Cl)cc2Cl)c1=O (centres undefined)
44 to 46	CCN(CC)CCNC(=O)c1ccc2cncc(I)c2n1
77	COC(=O)c1ccc(CCCO)c(C23CC4CC(CC(C4)C2)C3)c1
117 to 120	O=C1NC(=O)c2c1c(-c1ccccc1Cl)cc1c2c(Br)cn1CCCN1CCOCC1
100 to 102	CC(C)(C)c1ccc(Oc2cccc(C(=O)NCCN(O)C(N)=O)c2)cc1
206 to 209	COc1cc2c(cc1OC)N(C(N)=O)C(=O)C2
182 to 187	Cc1cc2cc(CN3CCCC3)cnc2cc1NC(=O)c1ccc(-c2ccc(F)cc2)cc1
290 to 291	O=C1c2ccc([N+](=O)[O-])c3c([N+](=O)[O-])ccc(c23)C(=O)N1O
86 to 88	CC1(C)CC(=O)N(C(=O)OCc2ccccc2)CC(C)(C)N1
120 to 121	CCOC(=O)c1cn(OC)c2ccccc2c1=O
150	CC(=O)c1nn(-c2c(Cl)cc(C(F)(F)F)cc2Cl)cc1C1CC1(Br)Br (centres undefined)
108	Cc1ccc(Br)cc1Cn1c(C=O)nn(C)c1=O
109	Cc1cc(SCc2sc(-c3ccc(Cl)cc3)nc2C)ccc1OCC(=O)O
123 to 127	CCc1nc(C)ccc1OC1SCC(OC(C)=O)C(OC(C)=O)C1OC(C)=O (centres undefined)
231	O=C(Nc1ccc(Cl)c(C(F)(F)F)c1)c1ccccc1NCc1ccc(=O)[nH]c1
138 to 141	CS(=O)(=O)OC[C@H]1CN(c2ccc(C3=CCSCC3)c(F)c2)C(=O)O1
50 to 51	COC(=O)C=C(Nc1ccc(CC(=O)OC)cc1)C(F)(F)F
76 to 78	CCOC(=O)c1cc(OC(C)=O)c(OC(C)=O)c(OC(C)=O)c1
131 to 133	CCOC(=O)NNc1ccc(N(C)CCO)nn1

melting point [°C]	SMILES
92 to 93	COc1cc(OC)nc(Cc2ccccc2[N+](=O)[O-])n1
72 to 73	COCCCc1cc(N(C)Cc2ccc(-c3ccc(C(F)(F)F)cc3)nc2C)ccc1OCC(=O)O
217 to 219	O=C(NC(=O)c1cccs1)NC1CCN(Cc2ccc3ccccc3c2)CC1
110 to 120	CC1=CC(=O)N(c2cc(-n3c(=O)n(C)c(=O)n(CC(=O)OC(C)C)c3=O)c(Cl)cc2F)C1=O
50	COC(=O)c1cccc(CNC(=O)C2Cc3ccccc3N2S(=O)(=O)c2ccc(-c3cccc(C(F)(F)F)c3)cc2)c1 (centres undefined)
148 to 149	COc1ccc([N+](=O)[O-])c(-c2cc(OC)ccc2[N+](=O)[O-])c1
172 to 173	CCCCn1c(C(=O)c2cc(C)cc(CCC#N)c2)c(C(C)C)c(=O)[nH]c1=O
154 to 155	COc1cc(CCCC2SC(=O)NC2=O)ccc1OCc1coc(/C=C/c2ccccc2)n1 (centres undefined)
211	Fc1cc(N2CCN(C3CCN(c4cccc5cccnc45)CC3)CC2)c2ncccc2c1
228 to 229	CN1CCCC(NC(=O)c2ccc3[nH]ncc3c2)C1 (centres undefined)
142 to 143	Cn1cccc1-c1cc(O)c2ncccc2c1O
148 to 151	CC(C)[Si](Oc1ccc([C@H](O)[C@H](C)N2CCC(O)(c3ccccc3)CC2)cc1)(C(C)C)C(C)C (relative stereo)
168 to 169	Cc1nc2cccc3n(CCCNS(=O)(=O)C(F)(F)F)c(=O)c1n23
101 to 102	CCCc1c(OCCCCCOc2ccccc2CCC(=O)O)ccc2c1OCC2=O
162 to 164	CCS(=O)(=O)Nc1nc(CCCN2CCN(C(c3ccccc3)c3ccccc3)CC2)cs1
110 to 112	CCCc1cc(=O)oc2cc(OC(=O)C(C)(C)C)cc(OC(=O)C(C)(C)C)c12
159	CCOC(=O)C1=C(N)NC(C)=CC1c1ccccc1C (centres undefined)
140 to 141	O=S(=O)(c1c(F)c(F)c(F)c(F)c1F)N1CCCC(c2ccc(F)cc2)=N1
60 to 64	CCCCCCCCCCCCC(C)N(c1ccccc1)P(=O)(O)O (centres undefined)
81 to 83	CCCCCCC(C)(O)CCc1ccc(O)c(O)c1 (centres undefined)
168	O=C(O)COc1ccc(SCc2ccc(OCc3ccc(Cl)c(Cl)c3)cc2)c2c1CCC2
128 to 130	O=C1CCCc2nc(-c3ccccc3)ccc21
129 to 132	COc1cc(N)c(Cl)cc1C(=O)NCC1CCN(CCCCCOc2ccccc2)CC1
219 to 221	CC(=O)Nc1ccc(C(=O)O)cc1OC(C)=O

melting point [°C]	SMILES
181 to 183	COc1ccc(N(c2ccccc2)c2ccc(-c3ccc(-c4ccc(N(c5ccccc5)c5ccc(OC)cc5C)cc4)cc3)cc2)c(C)c1
214 to 215	CC1OC(c2ccccc2Cl)c2cc(Cl)ccc2NC1=O (centres undefined)
225 to 229	NC(=O)CC(NC(=O)C(CO)NC(=O)CNC(=O)CNC(=O)OCc1ccccc1)C(=O)NC(Cc1ccccc1)C(=O)NCCc1ccccc1 (centres undefined) (Cbz-GGSNF-NHPhenethyl; configuration not given here)
220 to 223	COc1c(C(=O)C=Cc2ccncc2)cc(Cl)c(N)c1OC
131 to 132	CC(=O)N(C)c1cc(C(=O)C=CN(C)C)ccc1F
193 to 195	COc1cc(Nc2nc(-c3ccccc3)cs2)ccc1-c1cnco1
151 to 154	CCCCOC(=O)NC(=O)C1c2ccccc2Sc2ccccc21
67 to 69	CC(=O)Cc1ccc(C#CC(C)(C)O)cc1
166 to 169	Cn1nc(-c2cccc(Br)c2)cc1C(=O)O
99 to 100	NC(=O)N(O)CCOCc1ccsc1
33 to 34	CCCCCCC(=O)CCCC=O
83 to 85	CN(C)CCCN1N=C2C(=Cc3ccccc3)CSCC2C1c1ccccc1 (centres undefined)
57 to 58	COC=C(C#CCON=C(C)c1cccc(C(F)(F)F)c1)C(=O)OC
152 to 153	O=C1NCCC[C@@H]1NS(=O)(=O)c1c(F)cccc1F
158 to 159	O=Cc1c2ccccc2c(CCCl)c2ccccc12
> 200	N=C(N)c1ccc(C(=O)N[C@@H](Cc2ccccc2)C(=O)c2ccc(OCC(=O)O)cc2)cc1
142 to 143	CCN(CC)CCNC(=O)Cn1c(-c2ccc(Cl)cc2)nc2cccnc21
69 to 72	O=C1c2ccccc2COc2ccc(CCCCl)cc21
171 to 172	Nc1cccc(-c2cnc(N)nc2)c1
203 to 206	CCOCCc1cc2c(nc(O)n2CCCCS(C)(=O)=O)c(N)n1
158 to 160	CN1C(=O)c2cccnc2N(C)c2nc(-c3ccc[nH]3)ccc21
128	O=C(C=Cc1cccc2ccccc12)C=Cc1cccc2ccccc12

SMILES	melting point [°C]
C#CCN(C(=O)C1CC1)c1cccc(-c2ccnc3c(C(=O)c4cccs4)cnn23)c1	221 to 223
COc1cc(C(C)(C)O)c(O)c2c1C(C)(C)CCC2(C)C	140
O=C(O)c1ccccc1C(=O)NCCN1CCN(CCOC(c2ccccc2)c2ccccc2)CC1	45
O=C(OC1c2nccnc2C(=O)N1c1ccc(Cl)cn1)N1CCNCC1 (centres undefined)	205
Fc1ccc(Cn2c(NC3CCN(CCc4ccccn4)CC3)nc3ccccc32)cc1	133
